We go through ten molecules from PubChem BioAssay AID1053129 (The Scripps Research Institute Molecular Screening Center, 2014).

In the test the target is Fibrinogen beta chain (Homo sapiens) (UniProt P02675). Description: inhibitors of Tn6 peptide binding to fibrin DD(E), late-stage follow-up, biochemical, fluorescence polarization, human fibrin, dose response (AID 1053129). Particulars: FP, Tn6 cyclic peptide binding to DD(E).

Calls of active or inactive are those of the source. The rule behind the calls is not given here.

Chain of Fibrinogen beta chain (Homo sapiens) (P02675 whole entry, looked up): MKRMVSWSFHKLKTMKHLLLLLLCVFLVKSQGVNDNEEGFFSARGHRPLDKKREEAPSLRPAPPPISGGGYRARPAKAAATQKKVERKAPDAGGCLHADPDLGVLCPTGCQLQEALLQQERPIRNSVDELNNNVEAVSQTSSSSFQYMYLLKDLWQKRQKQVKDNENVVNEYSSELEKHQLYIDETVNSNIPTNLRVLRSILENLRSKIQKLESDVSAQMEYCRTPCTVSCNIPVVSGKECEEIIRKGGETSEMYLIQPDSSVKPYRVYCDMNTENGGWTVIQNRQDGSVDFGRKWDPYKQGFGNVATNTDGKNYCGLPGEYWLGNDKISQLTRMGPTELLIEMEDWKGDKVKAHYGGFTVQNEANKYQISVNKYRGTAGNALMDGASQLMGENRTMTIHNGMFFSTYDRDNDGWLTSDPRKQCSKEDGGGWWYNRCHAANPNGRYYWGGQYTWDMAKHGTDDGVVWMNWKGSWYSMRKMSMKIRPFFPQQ

`Cc1cc2cc(CNC(=O)c3ccc(S(=O)(=O)N4CCOCC4)cc3)ccc2n1C`: the IC50 was > 83.3 µM (inactive).
The same measure for `N#CC1=C(N)Oc2ccc3ccc(O)cc3c2C1c1ccsc1` (stereo not given): 3.5 µM; for `COc1ccc2ccccc2c1C(O)c1nccn1C` (stereo not given): > 83.3 µM (inactive); for `Cc1cc2cc(CNS(=O)(=O)c3ccc4ccccc4c3)ccc2n1C`: > 83.3 µM (inactive).
On to `NS(=O)(=O)c1ccc(NS(=O)(=O)c2ccc(NC(=O)c3ccc(-c4ccccc4)cc3)cc2)cc1`, for which the IC50 is 3.43 µM.
Turning to `Cc1cc2c(cc1S(=O)(=O)N1CCN(c3cccc(C)c3C)CC1)OCCN2C`, the IC50 was > 83.3 µM (inactive).
The same measure for `O=C(O)CCCNc1cc(N2CCN(C(=O)c3ccco3)CC2)c2noc3c2c1C(=O)c1ccccc1-3`: 6.78 µM; for `CCn1c(CSc2n[nH]c(N)n2)nc2cc(C(=O)O)ccc21`: 7.39 µM; for `Cc1cc(C)c(S(=O)(=O)NCCn2c(C)cc3ccccc32)c(C)c1`: > 83.3 µM (inactive).
The same measure for `CN1C(=O)NC(c2ccccc2[N+](=O)[O-])C2=C1CCCC2=O` (stereo not given): “inactive”.
